According to patent publication US10660876B2, “Amino compounds for treatment of medical disorders” (Achillion Pharmaceuticals, Inc., priority 2015, dated 2020):

Biological target: Human Factor D (Homo sapiens (Human), UniProt P00746)
Experiment: Human Factor D Assay
Type: biochemical
Details: Table 1; Factor D purified from human serum, 80 nM, substrate Z-L-Lys-SBzl; read-out: IC50
Description: Example 12. Human Factor D Assay
Human Factor D (purified from human serum, Complement Technology, Inc.) at 80 nM final concentration is incubated with test compound at various concentrations for 5 minutes at room temperature in 50 mM Tris, 1M NaCl, pH 7.5. A synthetic substrate Z-L-Lys-SBzl and DTNB (Ellman's reagent) are added to final concentrations of 100 μM each. Absorbance at 405 nm (A405) is recorded at 30 second intervals for 30 minutes using a microplate spectrophotometer. IC50 values are calculated by nonlinear regression of complement Factor D reaction rates as a function of test compound concentration.

Sequence of Human Factor D (P00746 26-253): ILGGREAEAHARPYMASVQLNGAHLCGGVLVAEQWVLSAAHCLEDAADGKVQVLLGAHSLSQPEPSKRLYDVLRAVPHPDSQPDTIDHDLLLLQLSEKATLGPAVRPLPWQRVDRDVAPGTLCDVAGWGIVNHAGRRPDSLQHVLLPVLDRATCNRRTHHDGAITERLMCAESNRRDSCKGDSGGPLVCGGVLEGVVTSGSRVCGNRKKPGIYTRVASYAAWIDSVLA

SMILES | IC50
CC(=O)c1cn(CC(=O)N2C[C@H](F)C[C@H]2C(=O)Nc2cccc(-c3ccccc3Cl)c2F)c2ccc(N(COC(=O)C(C)(C)C)c3cncnc3)cc12 [Compound 15, ((3-acetyl-1-(2-((2S,4R)-2-(2′-chloro-2-fluorobiphenyl-3-ylcarbamoyl)-4-fluoropyrrolidin-1-yl)-2-oxoethyl)-1H-indol-5-yl)(pyrimidin-5-yl)amino)methyl pivalate] | 1 to 10 µM
CC(=O)c1cn(CC(=O)N2C[C@H](F)C[C@H]2C(=O)NCc2ccccn2)c2ccc(Nc3cncnc3)cc12 [Compound 17, (2S,4R)-1-(2-(3-acetyl-5-(pyrimidin-5-ylamino)-1H-indol-1-yl)acetyl)-4-fluoro-N-(pyridin-2-ylmethyl) pyrrolidine-2-carboxamide] | < 1 µM
CC(=O)c1cn(CC(=O)N2C[C@H](F)C[C@H]2C(=O)NCc2cc(F)cc(Cl)c2)c2ccc(Nc3cncnc3)cc12 [Compound 18, (2S,4R)-1-(2-(3-acetyl-5-(pyrimidin-5-ylamino)-1H-indol-1-yl)acetyl)-N-(3-chloro-5-fluorobenzyl)-4-fluoropyrrolidine-2-carboxamide] | < 1 µM
CC(=O)c1cn(CC(=O)N2C[C@H](F)C[C@H]2C(=O)NCc2cccc(Cl)c2)c2ccc(Nc3cncnc3)cc12 [Compound 19, (2S,4R)-1-(2-(3-acetyl-5-(pyrimidin-5-ylamino)-1H-indol-1-yl)acetyl)-N-(3-chlorobenzyl)-4-fluoropyrrolidine-2-carboxamide] | < 1 µM
CC(=O)c1cn(CC(=O)N2C[C@H](F)C[C@H]2C(=O)Nc2cncc(Br)c2)c2ccc(Nc3cncnc3)cc12 [Compound 21, (2S,4R)-1-(2-(3-acetyl-5-(pyrimidin-5-ylamino)-1H-indol-1-yl)acetyl)-N-(5-bromopyridin-3-yl)-4-fluoropyrrolidine-2-carboxamide] | < 1 µM
CC(=O)c1cn(CC(=O)N2C[C@H](F)C[C@H]2C(=O)Nc2cncc(Cl)c2)c2ccc(Nc3cncnc3)cc12 [Compound 22, (2S,4R)-1-(2-(3-acetyl-5-(pyrimidin-5-ylamino)-1H-indol-1-yl)acetyl)-N-(5-chloropyridin-3-yl)-4-fluoropyrrolidine-2-carboxamide] | < 1 µM
CCN1Cc2ccc(NC(=O)[C@@H]3C[C@@H](F)CN3C(=O)Cn3cc(C(C)=O)c4cc(Nc5cncnc5)ccc43)cc2C1=O [Compound 23, (2S,4R)-1-(2-(3-acetyl-5-(pyrimidin-5-ylamino)-1H-indol-1-yl)acetyl)-N-(2-ethyl-3-oxoisoindolin-5-yl)-4-fluoropyrrolidine-2-carboxamide] | < 1 µM
CC(=O)c1cn(CC(=O)N2C[C@H](F)C[C@H]2C(=O)Nc2cccc3c2OC(C)(C)C3)c2ccc(Nc3cncnc3)cc12 [Compound 24, (2S,4R)-1-(2-(3-acetyl-5-(pyrimidin-5-ylamino)-1H-indol-1-yl)acetyl)-N-(2,2-dimethyl-2,3-dihydrobenzofuran-7-yl)-4-fluoropyrrolidine-2-carboxamide] | < 1 µM
CC(=O)c1cn(CC(=O)N2C[C@H](F)C[C@H]2C(=O)Nc2ccc3cn[nH]c3c2)c2ccc(Nc3cncnc3)cc12 [Compound 25, (2S,4R)-1-(2-(3-acetyl-5-(pyrimidin-5-ylamino)-1H-indol-1-yl)acetyl)-4-fluoro-N-(1H-indazol-6-yl)pyrrolidine-2-carboxamide] | < 1 µM
CC(=O)c1cn(CC(=O)N2C[C@H](F)C[C@H]2C(=O)Nc2ccc(F)c(-c3nnc4n3CCCCC4)c2)c2ccc(Nc3cncnc3)cc12 [Compound 26, (2S,4R)-1-(2-(3-acetyl-5-(pyrimidin-5-ylamino)-1H-indol-1-yl)acetyl)-4-fluoro-N-(4-fluoro-3-(6,7,8,9-tetrahydro-5H-[1,2,4]triazolo[4,3-a]azepin-3-yl)phenyl) pyrrolidine-2-carboxamide] | < 1 µM
CC(=O)c1cn(CC(=O)N2C[C@H](F)C[C@H]2C(=O)Nc2cccc3c2CN(c2ccccn2)C3)c2ccc(Nc3cncnc3)cc12 [Compound 27, (2S,4R)-1-(2-(3-acetyl-5-(pyrimidin-5-ylamino)-1H-indol-1-yl)acetyl)-4-fluoro-N-(2-(pyridin-2-yl)isoindolin-4-yl)pyrrolidine-2-carboxamide] | 1 to 10 µM
CC(=O)c1cn(CC(=O)N2C[C@H](F)C[C@H]2C(=O)NC2CCCc3nc(-c4ccc(F)cc4)sc32)c2ccc(Nc3cncnc3)cc12 (stereo partly drawn) [Compound 28, (2S,4R)-1-(2-(3-acetyl-5-(pyrimidin-5-ylamino)-1H-indol-1-yl)acetyl)-4-fluoro-N-(2-(4-fluorophenyl)-4,5,6,7-tetrahydrobenzo[d]thiazol-7-yl)pyrrolidine-2-carboxamide] | > 10 µM
CC(=O)c1cn(CC(=O)N2C[C@H](F)C[C@H]2C(=O)Nc2nc(-c3ccccc3Cl)ns2)c2ccc(Nc3cncnc3)cc12 [Compound 29, (2S,4R)-1-(2-(3-acetyl-5-(pyrimidin-5-ylamino)-1H-indol-1-yl)acetyl)-N-(3-(2-chlorophenyl)-1,2,4-thiadiazol-5-yl)-4-fluoropyrrolidine-2-carboxamide] | < 1 µM
CC(=O)c1cn(CC(=O)N2C[C@H](F)C[C@H]2C(=O)Nc2cccnc2)c2ccc(Nc3cncnc3)cc12 [Compound 31, (2S,4R)-1-(2-(3-acetyl-5-(pyrimidin-5-ylamino)-1H-indol-1-yl)acetyl)-4-fluoro-N-(pyridin-3-yl)pyrrolidine-2-carboxamide] | < 1 µM
CC(=O)c1cn(CC(=O)N2C[C@H](F)C[C@H]2C(=O)Nc2cncc(Cl)n2)c2ccc(Nc3cncnc3)cc12 [Compound 33, (2S,4R)-1-(2-(3-acetyl-5-(pyrimidin-5-ylamino)-1H-indol-1-yl)acetyl)-N-(6-chloropyrazin-2-yl)-4-fluoropyrrolidine-2-carboxamide] | < 1 µM
CC(=O)c1cn(CC(=O)N2C[C@H](F)C[C@H]2C(=O)Nc2cc3c(cc2F)OC(F)(F)O3)c2ccc(Nc3cncnc3)cc12 [Compound 35, (2S,4R)-1-(2-(3-acetyl-5-(pyrimidin-5-ylamino)-1H-indol-1-yl)acetyl)-4-fluoro-N-(2,2,6-trifluorobenzo[d] [1,3]dioxol-5-yl)pyrrolidine-2-carboxamide] | < 1 µM
CC(=O)c1cn(CC(=O)N2C[C@H](F)C[C@H]2C(=O)Nc2ccc3[nH]c(C)c(C)c3c2)c2ccc(Nc3cncnc3)cc12 [Compound 38, (2S,4R)-1-(2-(3-acetyl-5-(pyrimidin-5-ylamino)-1H-indol-1-yl)acetyl)-N-(2,3-dimethyl-1H-indol-5-yl)-4-fluoropyrrolidine-2-carboxamide] | < 1 µM
CC(=O)c1cn(C(=O)CN2C[C@H](F)C[C@H]2C(=O)Nc2nnc(-c3ccc(Cl)c(Cl)c3)s2)c2ccc(Nc3cncnc3)cc12 [Compound 39, (2S,4R)-1-(2-(3-acetyl-5-(pyrimidin-5-ylamino)-1H-indol-1-yl)-2-oxoethyl)-N-(5-(3,4-dichlorophenyl)-1,3,4-thiadiazol-2-yl)-4-fluoropyrrolidine-2-carboxamide] | > 10 µM
CC(=O)c1cn(CC(=O)N2C[C@H](F)C[C@H]2C(=O)Nc2cc(C)nc3nc(C(F)(F)F)nn23)c2ccc(Nc3cncnc3)cc12 [Compound 41, (2S,4R)-1-(2-(3-acetyl-5-(pyrimidin-5-ylamino)-1H-indol-1-yl)acetyl)-4-fluoro-N-(5-methyl-2-(trifluoromethyl)-[1,2,4]triazolo[1,5-a]pyrimidin-7-yl)pyrrolidine-2-carboxamide] | > 10 µM
